Measurements taken from patent US8841291B2, “Selective hydroxamic acid based MMP-12 and MMP-13 inhibitors” (Novartis AG, priority 2008, dated 2014).

Legend:
Collagenase-3 (MMP-13) = Collagenase-3 (MMP-13) (Homo sapiens, UniProt P45452); assay: Collagenase-3 (MMP-13) inhibitory activity, fluorogenic peptide substrate assay; format: biochemical; conditions: recombinant pro-collagenase-3 activated with 1 mM APMA; read-out: MMP13 IC50
Method: (§1) Stock solutions of inhibitors (0.03 mM-3 mM) are also prepared in DMSO. The inhibitors are diluted into the assay solutions, and the controls use an equal volume of DMSO so that the final DMSO concentration from the inhibitor and substrate dilutions in all assays is 1.0%. Assays are performed in an assay buffer (100 mM sodium chloride, 10 μM ZnCl. Sub 2, 10 mM CaCl2, 100 mM Tris-Cl pH7.5, 0.05% Brij-35), containing 1.0% DMSO from the substrate and inhibitor additions. The substrate concentration used in the assays is 5 μM. The assays are carried out at 20-25° C. […] The reaction mixtures are added in duplicate into appropriate wells of a 384-well assay plate. The reaction mixtures are preincubated with the inhibitors for 60 minutes The reactions are started by the addition of MMP substrate, and the fluorescence intensity changes are measured after 60 minutes The apparent enzyme activity in the presence of an inhibitor is then compared with that in the absence of any inhibitor to determine the inhibition effect of the inhibitor.
Collagenase-3 (MMP-13) inhibitory activity is determined as described above. Recombinant pro-collagenase-3 is activated with 1 mM APMA, and stored in the assay buffer after extensive dialysis in the assay buffer.

Gelatinase (MMP-2) = molecular target: T1, Gelatinase (MMP-2) (Homo sapiens, UniProt P08253); assay: Gelatinase (MMP-2) inhibitory activity, fluorogenic peptide substrate assay; format: biochemical; conditions: substrate 5 μM, 60 min preincubation, 20-25° C.; read-out: MMP2 IC50
T1 sequence (P08253 110-660): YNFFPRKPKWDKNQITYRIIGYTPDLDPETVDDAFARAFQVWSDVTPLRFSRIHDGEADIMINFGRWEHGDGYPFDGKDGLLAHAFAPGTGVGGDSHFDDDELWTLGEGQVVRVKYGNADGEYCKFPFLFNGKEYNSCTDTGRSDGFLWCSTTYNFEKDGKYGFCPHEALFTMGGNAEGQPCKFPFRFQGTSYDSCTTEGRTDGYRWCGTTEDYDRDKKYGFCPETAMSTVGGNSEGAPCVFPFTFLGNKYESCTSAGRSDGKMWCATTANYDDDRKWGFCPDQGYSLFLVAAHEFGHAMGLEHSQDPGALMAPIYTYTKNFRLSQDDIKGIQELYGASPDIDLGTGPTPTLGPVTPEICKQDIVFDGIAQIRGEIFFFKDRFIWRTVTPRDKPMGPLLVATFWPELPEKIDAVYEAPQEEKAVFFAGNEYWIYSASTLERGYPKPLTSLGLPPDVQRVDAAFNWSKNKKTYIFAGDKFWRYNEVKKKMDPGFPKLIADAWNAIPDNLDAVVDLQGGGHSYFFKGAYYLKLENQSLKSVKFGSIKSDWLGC
Method: as §1

Structure (SMILES) | IC50 (Collagenase-3 (MMP-13)) | IC50 (Gelatinase (MMP-2))
O=C(NO)[C@H]1CC=C(c2ccccc2)CN1S(=O)(=O)c1ccc2ccccc2c1 [Example 39, (R)-1-(Naphthalene-2-sulfonyl)-5-phenyl-1,2,3,6-tetrahydro-pyridine-2-carboxylic acid hydroxyamide] | 1.4 nM | 27.8 nM
CC(C)CCN([C@@H](C(=O)NO)C(C)C)S(=O)(=O)c1ccc2ccc(N)cc2c1 [Example 84, 2-[(7-Amino-naphthalene-2-sulfonyl)-(3-methyl-butyl)-amino]-N-hydroxy-3-methyl-butyramide] | 52.1 nM | > 1000 nM
C=CCCN([C@H](CC=C)C(=O)NO)S(=O)(=O)c1ccc2ccccc2c1 [Example 4, (R)-2-[But-3-enyl-(naphthalene-2-sulfonyl)-amino]-pent-4-enoic acid hydroxyamide] | 0.7 nM | 50.7 nM
CC(C)[C@H](C(=O)NO)N(CCOc1ccc(F)cc1)S(=O)(=O)c1ccc2ccccc2c1 [Example 41, N-(2-(4-fluorophenoxy)ethyl)-N-(naphthalene-2-sulfonyl)-D-valine hydroxamic acid] | 38.7 nM | 1130 nM
CC(=O)Nc1ccc2ccc(S(=O)(=O)N(CCC(C)C)[C@@H](C(=O)NO)C(C)C)cc2c1 [Example 61, 2-[(7-Acetylamino-naphthalene-2-sulfonyl)-(3-methyl-butyl)-amino]-N-hydroxy-3-methyl-butyramide] | 0.5 nM | 22.8 nM
O=C(NO)[C@H]1CCCN1S(=O)(=O)c1ccc2ccccc2c1 (stereo in doubt) [Example 52, 1-(Naphthalene-2-sulfonyl)-pyrrolidine-2-carboxylic acid hydroxyamide] | 293 nM | 350 nM
C=CC1=CCN(S(=O)(=O)c2ccc3ccccc3c2)[C@@H](C(=O)NO)C1 [Example 44, (R)-1-(Naphthalene-2-sulfonyl)-4-vinyl-1,2,3,6-tetrahydro-pyridine-2-carboxylic acid hydroxyamide] | 1.8 nM | 30.1 nM
COc1c(S(=O)(=O)N(CCC(C)C)[C@@H](C(=O)NO)C(C)C)ccc2ccccc12 [Example 79, (R)—N-Hydroxy-2-[(1-methoxy-naphthalene-2-sulfonyl)-(3-methyl-butyl)-amino]-3-methyl-butyramide] | 1.1 nM | 51.8 nM
CC(C)CCN(C1(C(=O)NO)CC1)S(=O)(=O)c1ccc2ccccc2c1 [Example 73, 1-[(3-Methyl-butyl)-(naphthalene-2-sulfonyl)-amino]-cyclopropanecarboxylic acid hydroxyamide] | 35 nM | 402 nM
CC(C)[C@H](C(=O)NO)N(CCOc1cccc(Cl)c1)S(=O)(=O)c1ccc2ccccc2c1 [Example 62, N-(2-(3-chlorophenoxy)ethyl)-N-(naphthalene-2-sulfonyl)-D-valine hydroxamic acid] | 138 nM | 3890 nM
CC(=O)Nc1ccc2cc(S(=O)(=O)N(CCCc3ccccc3)[C@@H](C(=O)NO)C(C)C)ccc2c1 [Example 34, 2-[(6-Acetylamino-naphthalene-2-sulfonyl)-(3-phenyl-propyl)-amino]-N-hydroxy-3-methyl-butyramide] | 1310 nM | 2900 nM
CC(C)(NS(=O)(=O)c1ccc2ccccc2c1)C(=O)NO [Example 12, N-Hydroxy-2-methyl-2-(naphthalene-2-sulfonylamino)-propionamide] | 761 nM | 793 nM
CC(C)[C@H](C(=O)NO)N(CCOc1ccc(Cl)cc1)S(=O)(=O)c1ccc2ccccc2c1 [Example 58, (R)-2-[[2-(4-Chloro-phenoxy)-ethyl]-(naphthalene-2-sulfonyl)-amino]-N-hydroxy-3-methyl-butyramide] | 116 nM | 2650 nM
O=C(NO)[C@H]1CC=CCN1S(=O)(=O)c1cnc2ccccc2c1 [Example 72, (R)-1-(Quinoline-3-sulfonyl)-1,2,3,6-tetrahydro-pyridine-2-carboxylic acid hydroxyamide] | 95.7 nM | 853 nM
C=CC[C@@H](NS(=O)(=O)c1ccc2ccccc2c1)C(=O)NO [Example 3, (R)-2-(Naphthalene-2-sulfonylamino)-pent-4-enoic acid hydroxyamide] | 35.6 nM | 22.2 nM
CC(C)[C@H](C(=O)NO)N(CCCc1ccccc1)S(=O)(=O)c1ccc2cc(N)ccc2c1 [Example 32, 2-[(6-Amino-naphthalene-2-sulfonyl)-(3-phenyl-propyl)-amino]-N-hydroxy-3-methyl-butyramide] | 1 nM | 82.2 nM
COc1cccc(OCCN([C@@H](C(=O)NO)C(C)C)S(=O)(=O)c2ccc3ccccc3c2)c1 [Example 46, (R)—N-Hydroxy-2-[[2-(3-methoxy-phenoxy)-ethyl]-(naphthalene-2-sulfonyl)-amino]-3-methyl-butyramide] | 13.9 nM | 655 nM

The remaining lines, values ahead:

IC50 (Collagenase-3 (MMP-13)) | IC50 (Gelatinase (MMP-2)) | Structure (SMILES)
28.7 nM | 976 nM | CCOc1ccc2ccc(S(=O)(=O)N(Cc3cccnc3)[C@@H](C(=O)NO)C(C)C)cc2c1 [Example 68, 2-[(7-Ethoxy-naphthalene-2-sulfonyl)-pyridin-3-ylmethyl-amino]-N-hydroxy-3-methyl-butyramide]
50.9 nM | 92.7 nM | O=C(NO)C(NS(=O)(=O)c1ccc2ccccc2c1)C1CCOCC1 (centres unmarked) [Example 11, N-Hydroxy-2-(naphthalene-2-sulfonylamino)-2-(tetrahydro-pyran-4-yl)-acetamide]
63 nM | 713 nM | CC(C)CCN([C@@H](C(=O)NO)C(C)C)S(=O)(=O)c1nc2ccccc2s1 [Example 98, (R)-2-[(Benzothiazole-2-sulfonyl)-(3-methyl-butyl)-amino]-N-hydroxy-3-methyl-butyramide]
40.5 nM | 57.5 nM | CC(C)C[C@@H](NS(=O)(=O)c1ccc2ccccc2c1)C(=O)NO [Example 5, 4-Methyl-2-(naphthalene-2-sulfonylamino)-pentanoic acid hydroxyamide]
132 nM | 975 nM | O=C(NO)[C@H]1CCCCN1S(=O)(=O)c1cnc2ccccc2c1 [Example 50, (R)-1-(Quinoline-3-sulfonyl)-piperidine-2-carboxylic acid hydroxyamide]
118 nM | > 300 nM | Cc1ccc(Nc2ccc3cc(S(=O)(=O)N(Cc4ccccc4)[C@@H](C(=O)NO)C(C)C)ccc3c2)cc1 [Example 43, 2-[Benzyl-(6-p-tolylamino-naphthalene-2-sulfonyl)-amino]-N-hydroxy-3-methyl-butyramide]
672 nM | > 3000 nM | CC(C)CCN([C@@H](C(=O)NO)C(C)C)S(=O)(=O)c1ccc2ccccc2c1O [Example 1, (R)—N-Hydroxy-2-[(1-hydroxy-naphthalene-2-sulfonyl)-(3-methyl-butyl)-amino]-3-methyl-butyramide]
134 nM | 3350 nM | Cc1ccc2ccc(S(=O)(=O)N(CCC(C)C)[C@@H](C(=O)NO)C(C)C)cc2c1 [Example 85, N-isoamyl-N-(6-methylnaphthalene-2-sulfonyl)-D-valine hydroxamic acid]
10.5 nM | 54.7 nM | O=C(NO)[C@H]1CC=CCN1S(=O)(=O)c1ccc2ncccc2c1 [Example 63, (R)-1-(Quinoline-6-sulfonyl)-1,2,3,6-tetrahydro-pyridine-2-carboxylic acid hydroxyamide]
135 nM | 770 nM | O=C(NO)[C@H]1[C@@H]2CCCC[C@@H](C2)N1S(=O)(=O)c1ccc2ccccc2c1 [Example 83, 7-(Naphthalene-2-sulfonyl)-7-aza-bicyclo[4.2.1]nonane-8-carboxylic acid hydroxyamide]
7.3 nM | 128 nM | C=CCOc1ccc2cc(S(=O)(=O)N(CCC(C)C)[C@@H](C(=O)NO)C(C)C)ccc2c1 [Example 66, 2-[(6-Allyloxy-naphthalene-2-sulfonyl)-(3-methyl-butyl)-amino]-N-hydroxy-3-methyl-butyramide]
2.1 nM | 61.2 nM | CC(C)[C@H](C(=O)NO)N(CCOc1ccccc1)S(=O)(=O)c1ccc2ccccc2c1 [Example 30, N-(2-phenoxyethyl)-N-(naphthalene-2-sulfonyl)-D-valine hydroxamic acid]
3.5 nM | 125 nM | C#CC[C@H](C(=O)NO)N(CC=C)S(=O)(=O)c1ccc2ccccc2c1 [Example 8, (R)-2-[Allyl-(naphthalene-2-sulfonyl)-amino]-pent-4-ynoic acid hydroxyamide]
> 30000 nM | > 30000 nM | CC(=O)N(CCC(C)C)c1ccc2ccc(S(=O)(=O)N(CCC(C)C)[C@@H](C(=O)NO)C(C)C)cc2c1 [Example 71, 2-[{7-[Acetyl-(3-methyl-butyl)-amino]-naphthalene-2-sulfonyl}-(3-methyl-butyl)-amino]-N-hydroxy-3-methyl-butyramide]
